Experimental data taken from the NIST ThermoML archive (doi:10.1021/je8003832).

Tests used:
[1] = 101 kPa, Liquid
[2] = xn = mol fraction of the nth substance listed; settings: 101 kPa, Liquid, x1 = 1

CCCCn1cc[n+](C)c1.O=S(=O)([O-])C(F)(F)F [1-butyl-3-methylimidazolium trifluoromethanesulfonate]
[1]
Settings | mass density [kg/m3] | viscosity [mPa·s]
303.15 K | 1298.4 | 63.19
308.15 K | 1294.9 | 51.73
313.15 K | 1291.4 | 42.46
318.15 K | 1287.8 | 35.17
323.15 K | 1284.4 | 29.55
333.15 K | 1277.4 | 21.61
343.15 K | 1270.5 | 16.38

O [water] + CCCCn1cc[n+](C)c1.O=S(=O)([O-])C(F)(F)F
[2]
Settings | mass density [kg/m3] | viscosity [mPa·s]
303.15 K | – | 0.7977
308.15 K | – | 0.719
313.15 K | – | 0.6532
318.15 K | – | 0.6001
323.15 K | – | 0.547
333.15 K | 983.2 | 0.4665
343.15 K | 977.8 | 0.404
